Test results as given in patent publication US8808713B2, “Compositions for pulmonary delivery of long-acting β2 adrenergic receptor agonists and associated methods and systems” (Pearl Thereapeutics, Inc., priority 2009, dated 2014).
Blank lines part the entries; values can stand above or below the molecule they belong to.

Columns and labels:
[1] = Visual observation of suspension quality / co-suspension in glass vials (settling, centrifugation); format: physicochemical
[2] = tested on: patients with mild to moderate COPD; experiment: Multi-center clinical trial, single-dose crossover: spirometry (FEV1) and safety; conditions: 18 μg via Spiriva Handihaler

Visual observation: sedimentation of crystalline FF ([1]; glass vials, HFA 134a, left to settle 24 h): sedimented quickly
Compound: COc1ccc(CC(C)NCC(O)c2ccc(O)c(NC=O)c2)cc1.O=C(O)/C=C/C(=O)O (racemic) [FF, (±)-2-hydroxy-5-[(1RS)-1-hydroxy-2-[[(1RS)-2-(4-methoxyphenyl)-1-methylethyl]-amino]ethyl]formanilide fumarate]

Compound: OCc1cc(C(O)CNCCCCCCOCCCCc2ccccc2)ccc1O (stereo not drawn) [SX, 4-hydroxy-α1-[[[6-(4-phenylbutoxy)hexyl]amino]methyl]-1,3-benzenedimethanol, 1-hydroxy-2-naphthalenecarboxylate]
Visual observation: sedimentation of SX crystals ([1]; glass vials heated up to 30° C.-35° C. in a water bath): sedimented rapidly

Compound: C[N+]1(C)[C@@H]2C[C@@H](OC(=O)C(O)(c3cccs3)c3cccs3)C[C@H]1[C@@H]1O[C@@H]12 [tiotropium]
Mean time to ≧10% improvement in FEV1 [2]: approximately 3 hours
